From patent publication US8940865B2, “Myocardial peptide, preparation method and uses thereof” (Dalian Zhen-Ao Pharmaceutical Co, Ltd., priority 2008, dated 2015)

Tested on: primary culture myocardium cell damaged by hypoxia/reoxygenation
Assay: Anti-hypoxia/reoxygenation injury effect on primary culture myocardium cell (MTT)
Type: cell-based, Neonatal SD rat
Source text: Take ventricle from Neonatal SD rat, wash with D-Hank's and cut to small pieces, digest with collagenase II to obtain the myocardium cell and fibroblast, which are cultivated with high glucose DMEM (dmem-h-15) culture medium containing 15% fetal bovine serum. Remove the fibroblast through differential adhesion and chemistry method, and inoculate myocardium cell on the 96-well plates.
2.1.3 Anti-Hypoxia/Reoxygenation Injury Effect of CMPC to Primary Culture Myocardium Cell.
Cell cultivation method is the same as that in 2.1.1
Preparation of model: Preparing the model by using the myocardium cell cultured for 48˜72 h, dividing the cell on the culture plate to following groups: Control Group, Model Group, Verapamil Group (2, 0.4, 0.08 mg/l final concentration) and CMPM Group (final concentration of 50, 10, 2, 0.4, 0.08, 0.016, 0.0032 mg/l), 3 wells for every group. Except the Control Group, the other groups are prepared by following method: placing the monolayer myocardium cell on center of culture plate on low glucose medium (containing Verapamil or CMPM with corresponding concentration), then placing the culture plate into the vacuum drying machine, filling nitrogen, and hermetically culturing, causing myocardial injury after oxygen lack for 15 hours, then being cultured for 1 hour by high glucose DMEM medium (95% atmosphere and 5% CO2) to cause reoxygention injury. Measuring the absorbance value at 540 nm by using MTT method, and the same as above, calculating the protective rate to figure out EC50.

KGAWSNVLRGMGGAF [CMPC, Lys-Gly-Ala-Trp-Ser-Asn-Val-Leu-Arg-Gly-Met-Gly-Gly-Ala-Phe]
% (protective rate) (Plate 1, Dosage 0.0032 mg/L): 4.11% | A540 (Plate 1, Dosage 0.0032 mg/L): 0.496 ± 0.031 | % (protective rate) (Plate 1, Dosage 0.016 mg/L): 14.69% | A540 (Plate 1, Dosage 0.016 mg/L): 0.526 ± 0.032 | % (protective rate) (Plate 1, Dosage 0.08 mg/L): 26.09% | A540 (Plate 1, Dosage 0.08 mg/L): 0.558 ± 0.025 | % (protective rate) (Plate 1, Dosage 0.4 mg/L): 38.95% | A540 (Plate 1, Dosage 0.4 mg/L): 0.594 ± 0.043 | % (protective rate) (Plate 1, Dosage 2 mg/L): 28.91% | A540 (Plate 1, Dosage 2 mg/L): 0.566 ± 0.057 | % (protective rate) (Plate 1, Dosage 10 mg/L): 17.74% | A540 (Plate 1, Dosage 10 mg/L): 0.534 ± 0.033 | % (protective rate) (Plate 1, Dosage 50 mg/L): 9.05% | A540 (Plate 1, Dosage 50 mg/L): 0.510 ± 0.030 | % (protective rate) (Plate 2, Dosage 0.0032 mg/L): 20.37% | A540 (Plate 2, Dosage 0.0032 mg/L): 0.543 ± 0.052 | % (protective rate) (Plate 2, Dosage 0.016 mg/L): 22.85% | A540 (Plate 2, Dosage 0.016 mg/L): 0.550 ± 0.024 | % (protective rate) (Plate 2, Dosage 0.08 mg/L): 48.52% | A540 (Plate 2, Dosage 0.08 mg/L): 0.622 ± 0.047 | % (protective rate) (Plate 2, Dosage 0.4 mg/L): 40.20% | A540 (Plate 2, Dosage 0.4 mg/L): 0.599 ± 0.032 | % (protective rate) (Plate 2, Dosage 2 mg/L): 30.99% | A540 (Plate 2, Dosage 2 mg/L): 0.573 ± 0.052 | % (protective rate) (Plate 2, Dosage 10 mg/L): 19.36% | A540 (Plate 2, Dosage 10 mg/L): 0.540 ± 0.026 | % (protective rate) (Plate 2, Dosage 50 mg/L): 18.12% | A540 (Plate 2, Dosage 50 mg/L): 0.536 ± 0.036 | % (protective rate) (Plate 3, Dosage 0.0032 mg/L): 15.86% | A540 (Plate 3, Dosage 0.0032 mg/L): 0.763 ± 0.018 | % (protective rate) (Plate 3, Dosage 0.016 mg/L): 24.20% | A540 (Plate 3, Dosage 0.016 mg/L): 0.777 ± 0.014 | % (protective rate) (Plate 3, Dosage 0.08 mg/L): 38.05% | A540 (Plate 3, Dosage 0.08 mg/L): 0.800 ± 0.020 | % (protective rate) (Plate 3, Dosage 0.4 mg/L): 47.29% | A540 (Plate 3, Dosage 0.4 mg/L): 0.815 ± 0.014 | % (protective rate) (Plate 3, Dosage 2 mg/L): 64.26% | A540 (Plate 3, Dosage 2 mg/L): 0.843 ± 0.032 | % (protective rate) (Plate 3, Dosage 10 mg/L): 34.43% | A540 (Plate 3, Dosage 10 mg/L): 0.790 ± 0.023 | % (protective rate) (Plate 3, Dosage 50 mg/L): 14.96% | A540 (Plate 3, Dosage 50 mg/L): 0.761 ± 0.019
